Earlier results on 3 compounds are cited in patent US20070141147A1, “SEQUENTIAL RELEASE PHARMACEUTICAL FORMULATIONS” (Auriga Laboratories, Inc., priority 2005, published 2007).

Each structure is given as a SMILES string. Structures can show the parent of a compound that is named as a salt.

The conditions of data set [1]: water and alcohol.
The conditions of data set [2]: in vivo.

With `CNCC(O)c1cccc(O)c1` (stereo in doubt) [Phenylephrine hydrochloride, (S)-3-hydroxy-[alpha][(methylamino)methylbenzenemethanol hydrochloride], the solubility entry in data set [1] was “freely soluble”. With `COc1ccccc1OCC(O)CO` (stereo not drawn) [Guaifenesin, 3-(2-methoxyphenoxy)-1,2-propanediol], the solubility result in data set [1] is reported as “soluble”. In the case of `C[N+]1(C)[C@@H]2C[C@@H](OC(=O)[C@H](CO)c3ccccc3)C[C@H]1[C@@H]1O[C@@H]12` [methscopolamine], the plasma half-life result in data set [2] is given as “relatively short”.
